Measurements as given in patent publication US8946478B2, “Benzamide derivative with anticancer activity and preparation method and use thereof” (Zhejiang Hisun Pharmaceutical Co., Ltd., priority 2010, dated 2015).

What was measured:
[1] = system: human breast cancer cell strain MDA-MB435 xenograft; experiment: Human cancer xenograft tumor model in nude mouse; assay type: in vivo, BALB/C nude mice; conditions: MDA-MB-435 model, 21 d, intraperitoneal once a day, T/C < 60% = effective
Source text: (§1) 5-6 week old female or male BALB/C nude mice, about 18-20 g in weight, were raised. Human cancer xenograft tumor model in nude mouse was established by the following steps: human colon cancer cell strains HCT-116 and Colo205, human breast cancer cell strain MDA-MB435, human prostate cancer cell strain BXPC-3, human ovarian cancer cell strain SKOV-3, human lung cancer cell strain A549, human pancreatic cancer cell strain PANC-1, and human uterine cancer cell strain Hela were all obtained from ATCC. Each cell strain was cultured, and monolayer of cultured tumor cells were digested off the walls, collected and resuspended in serum-free culture medium, and adjusted to a concentration of 2×10^6/0.2 mL, which was then brought to the animal room in an ice box. 0.2 mL cell suspension was drawn directly by a syringe with […] and subcutaneously transplanted into the scapula part of the rear part of nude mouse's left armpit, 2×10^6/0.2 mL for each mouse, and the tumor volume was measured every 2-3 days. After two weeks, tumor was removed under sterile conditions from tumor-bearing nude mice with vigorous tumor growth and without diabrosis. The tumor tissue was cut into pieces of about 2˜3 mm and inoculated subcutaneously into the scapula part of the rear part of nude mouse's left armpit. After three passages, when the tumor volume reached 100 mm^3, the nude mice with too large or too small tumors were eliminated and the rest were randomly divided into groups for the administration.
(§2) The mice were randomly divided into 5 groups, including negative control group (solvent), positive control group (BSI-201, 80 mg/kg), and three treatment groups with high, middle and low doses (40 mg/kg, 30 mg/kg, and 20 mg/kg respectively, wherein the high dose was below the MTD), and there were 8 nude mice in each group except that there are 16 ones in the negative control group. They were administered by intraperitoneal injection once a day for 3 consecutive weeks, during which body weight and tumor volume of the animals were detected and the death number of animals was recorded every 2 days. The animals were sacrificed 24 hours after the last administration, and the volume sizes of tumor, tumor weight, and body weight of nude mice were measured; growth curves of tumor volume, growth curves of body weight of nude mice and tumor inhibition rate, animal mortality were plotted, and relative tumor proliferation rate T/C (%) was calculated according to the equation T/C (%)=TRTV/CRTV*100%. (TRTV: RTV of the treatment group; CRTV: RTV of the negative control group, relative tumor volume RTV=Vt/V0, wherein V0 is the tumor volume when the mice were divided into groups for administration, Vt is the tumor volume after the administration).

[2] = system: human colon cancer cell strain Colo205 xenograft; experiment: Human cancer xenograft tumor model in nude mouse; assay type: in vivo, BALB/C nude mice; conditions: Colo-205 model, 21 d, intraperitoneal once a day, T/C < 60% = effective
Source text: as §1, §2

[3] = system: human colon cancer cell strain HCT-116 xenograft; experiment: Human cancer xenograft tumor model in nude mouse; assay type: in vivo, BALB/C nude mice; conditions: HCT-116 model, 21 d, intraperitoneal once a day, T/C < 60% = effective
Source text: as §1, §2

[4] = system: human lung cancer cell strain A549 xenograft; experiment: Human cancer xenograft tumor model in nude mouse; assay type: in vivo, BALB/C nude mice; conditions: 21 d, intraperitoneal once a day, T/C < 60% = effective
Source text: as §1, §2

[5] = system: human ovarian cancer cell strain SKOV-3 xenograft; experiment: Human cancer xenograft tumor model in nude mouse; assay type: in vivo, BALB/C nude mice; conditions: SKOV-3 model, 21 d, intraperitoneal once a day, T/C < 60% = effective
Source text: as §1, §2

[6] = system: human pancreatic cancer cell strain PANC-1 xenograft; experiment: Human cancer xenograft tumor model in nude mouse; assay type: in vivo, BALB/C nude mice; conditions: PANC-1 model, 21 d, intraperitoneal once a day, T/C < 60% = effective
Source text: as §1, §2

[7] = system: human prostate cancer cell strain BXPC-3 xenograft; experiment: Human cancer xenograft tumor model in nude mouse; assay type: in vivo, BALB/C nude mice; conditions: BXPC-3 model, 22 d, intraperitoneal once a day, T/C < 60% = effective
Source text: as §1, §2

[8] = system: human uterine cancer cell strain Hela xenograft; experiment: Human cancer xenograft tumor model in nude mouse; assay type: in vivo, BALB/C nude mice; conditions: 21 d, intraperitoneal once a day, T/C < 60% = effective
Source text: as §1, §2

[9] = system: human cancer xenograft tumor models; experiment: In vivo efficacy screening, summary over the xenograft models; set-up: species or system BALB/C nude mice; conditions: 30 mg/kg I-1 against 80 mg/kg BSI-201, nude mouse xenografts
Source text: 5-6 week old female or male BALB/C nude mice, about 18-20 g in weight, were raised. Human cancer xenograft tumor model in nude mouse was established by the following steps: human colon cancer cell strains HCT-116 and Colo205, human breast cancer cell strain MDA-MB435, human prostate cancer cell strain BXPC-3, human ovarian cancer cell strain SKOV-3, human lung cancer cell strain A549, human pancreatic cancer cell strain PANC-1, and human uterine cancer cell strain Hela were all obtained from ATCC. […] 0.2 mL cell suspension was drawn directly by a syringe with […] and subcutaneously transplanted into the scapula part of the rear part of nude mouse's left armpit, 2×10^6/0.2 mL for each mouse, and the tumor volume was measured every 2-3 days. […]
The mice were randomly divided into 5 groups, including negative control group (solvent), positive control group (BSI-201, 80 mg/kg), and three treatment groups with high, middle and low doses (40 mg/kg, 30 mg/kg, and 20 mg/kg respectively, wherein the high dose was below the MTD), and there were 8 nude mice in each group except that there are 16 ones in the negative control group. They were administered by intraperitoneal injection once a day for 3 consecutive weeks, during which body weight and tumor volume of the animals were detected and the death number of animals was recorded every 2 days. […]

SMILES | Relative tumor proliferation rate T/C (%) ([1]; 80 mg/kg) | Relative tumor proliferation rate T/C (%) ([2]; 80 mg/kg) | Relative tumor proliferation rate T/C (%) ([3]; 80 mg/kg) | Relative tumor proliferation rate T/C (%) ([4]; 80 mg/kg) | Relative tumor proliferation rate T/C (%) ([5]; 80 mg/kg) | Relative tumor proliferation rate T/C (%) ([6]; 80 mg/kg) | Relative tumor proliferation rate T/C (%) ([7]; 80 mg/kg) | Relative tumor proliferation rate T/C (%) ([8]; 80 mg/kg) | Relative tumor proliferation rate T/C (%) ([1]; 30 mg/kg) | Relative tumor proliferation rate T/C (%) ([2]; 30 mg/kg) | Relative tumor proliferation rate T/C (%) ([3]; 30 mg/kg) | Relative tumor proliferation rate T/C (%) ([4]; 30 mg/kg) | Relative tumor proliferation rate T/C (%) ([5]; 30 mg/kg) | Relative tumor proliferation rate T/C (%) ([6]; 30 mg/kg) | Relative tumor proliferation rate T/C (%) ([7]; 30 mg/kg) | Relative tumor proliferation rate T/C (%) ([8]; 30 mg/kg) | in vivo efficacy compared with BSI-201 (in words) [9]
NC(=O)c1ccc(I)c([N+](=O)[O-])c1 [BSI-201, 4-iodo-3-nitrobenzamide, reference compound] | 44%(80, 21) | 50%(80, 21) | 54%(80, 21) | 42%(80, 21) | 41%(80, 21) | 45%(80, 21) | 48%(80, 22) | 48%(80, 21) | – | – | – | – | – | – | – | – | –
C#Cc1ccc(C(N)=O)cc1[N+](=O)[O-] [Compound I-1, 4-ethynyl-3-nitrobenzamide] | – | – | – | – | – | – | – | – | 40%(30, 21) | 42%(30, 21) | 52%(30, 21) | 40%(30, 21) | 45%(30, 21) | 40%(30, 21) | 43%(30, 22) | 50%(30, 21) | equivalent efficacy to that of 80 mg/kg BSI-201
